The experiment deals with Aβ(1–40) fibrils (Homo sapiens, UniProt P05067). Briefly: radioligand displacement of [3H]Chrysamine-G, filtration assay. Format: binding. On the technique in general: In a radioligand displacement assay an active substance lowers the binding of a labelled ligand.
Aβ(1–40) fibrils, sequence (P05067 672-711): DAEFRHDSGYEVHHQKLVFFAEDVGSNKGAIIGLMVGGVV

The term Ki denotes the dissociation constant of the complex between target and ligand, obtained from inhibition or displacement. Higher therefore signals weaker binding. In turn, `COc1cc(/C=C/c2ccc(/C=C/c3ccc(O)c(O)c3)cc2)ccc1O` [X:034-3-OMe1, (E,E)-1-(3’,4’-dihydroxystyryl)-4-(3’-methoxy-4’hydroxystyryl)benzene] displayed an inhibition constant Ki of 0.021 µM.

Compound `O=C(O)c1cc(/C=C/C=C/c2ccc(/C=C/C=C/c3ccc(O)c(C(=O)O)c3)cc2)ccc1O` [X:EE:B34, 1,4-bis[(1E,3E)-4-(3’-carboxy-4’-hydroxyphenyl)-1,3-butadienyl]-benzene] came in with a Ki of 0.00013 µM.

For the origin of these results see paper PMC2812908 (Letters in drug design & discovery, 2009).
